Test results as given in US20240390432A1, “ENGINEERED VECTORS AND ORGANISMS CONTAINING THE SAME FOR ISOFLAVONE CONVERSION IN THE GUT” (Board of Regents, The University of Texas System, priority 2021, published 2024).

Tests used:
[1] = Equol-producing postmenopausal women, purified supplement; cited from earlier work
ERbeta = ERbeta (Homo sapiens, UniProt Q92731); conditions: unlike products activating ERalpha, androgen, glucocorticoid, progesterone, mineralocorticoid receptors; cited from earlier work
[2] = Serum Equol levels of mice given soy hydrogel and probiotic via drinking water; type: in vivo; conditions: mouse, oral, positive control: Equol supplemented directly in hydrogel, no Nissle strains
Experimental: Serum Equol levels of the mice were measured after 1 week of consumption of a low or high soy content supplement (1× or 8× soy loaded hydrogel). […] Two sets of negative controls were provided as reference. […] In addition, a positive control group consumed Equol that was supplement directly in the hydrogel to reveal, as expected, a very high elevation in serum Equol concentration reaching almost 5 μM without the addition of the engineered Nissle P1 and Nissle P2 strains.

Chain of ERbeta (Q92731 whole entry, species assumed): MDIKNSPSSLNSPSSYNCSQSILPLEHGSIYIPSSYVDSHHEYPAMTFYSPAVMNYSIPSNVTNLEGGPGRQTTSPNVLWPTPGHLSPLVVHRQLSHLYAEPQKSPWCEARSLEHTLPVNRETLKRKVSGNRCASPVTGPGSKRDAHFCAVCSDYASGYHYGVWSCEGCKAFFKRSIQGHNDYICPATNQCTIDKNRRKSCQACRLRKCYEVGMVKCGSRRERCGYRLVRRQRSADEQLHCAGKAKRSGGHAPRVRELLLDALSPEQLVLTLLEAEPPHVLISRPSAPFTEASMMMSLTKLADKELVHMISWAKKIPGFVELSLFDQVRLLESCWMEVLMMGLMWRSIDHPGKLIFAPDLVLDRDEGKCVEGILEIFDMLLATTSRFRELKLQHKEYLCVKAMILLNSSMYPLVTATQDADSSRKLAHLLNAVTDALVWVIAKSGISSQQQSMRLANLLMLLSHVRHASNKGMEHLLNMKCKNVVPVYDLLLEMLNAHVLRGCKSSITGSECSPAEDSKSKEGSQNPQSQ

Row | Compound | effect on serum LDL-C and C-reactive protein [1] | receptor selectivity (ERbeta) | concentration at 1 week [2] [µM]
1 | O=c1c(-c2ccc(O)cc2)coc2cc(O)ccc12 [Daidzein] | not seen |  | 
2 | Oc1ccc([C@H]2COc3cc(O)ccc3C2)cc1 [Equol] |  | selective agonist for ERbeta | ~5
